Measurements reported in US20020137929A1, “1 - (3-heterocyclylphenyl) isothiourea, -isourea, -guanidine and -amidine herbicidal agents” (Intellectual Property Department, BASF Aktiengesellschaft, priority 1998, published 2002).

What was measured:
[1] = tested on: ABUTH (Velvetleaf); test: Postemergence herbicidal evaluation; type: in vivo, Abutilon theophrasti
Protocol: (§1) In the tests, seedling plants are grown in jiffy flats for about two weeks. The test compounds are dispersed in 50/50 acetone/water mixtures containing 0.5% TWEEN®20, a polyoxyethylene sorbitan monolaurate surfactant of Atlas Chemical Industries, in sufficient quantities to provide the equivalent of about 0.0156 kg to 0.500 kg per hectare of active compound when applied to the plants through a spray nozzle operating at 40 psi for a predetermined time. After spraying, the plants are placed on greenhouse benches and are cared for in accordance with conventional greenhouse procedures. From four to five weeks after treatment, the seedling plants are examined and rated according to the rating system set forth below. Where more than one test is involved for a given compound, the data are averaged.
(§2) Plant species employed in these evaluations are reported by header abbreviation, common name and scientific name.
(§3) Results of herbicide evaluation are expressed on a rating scale (0-9). The scale is based upon a visual observation of plant stand, vigor, malformation, size, chlorosis and overall plant appearance as compared with a control.

[2] = tested on: AMBEL (Ragweed, Common); test: Postemergence herbicidal evaluation; type: in vivo, Ambrosia artemisifolia
Protocol: as §1, §2, §3

[3] = tested on: CASOB (Sicklepod); test: Postemergence herbicidal evaluation; type: in vivo, Cassia obtusifolia
Protocol: as §1, §2, §3

[4] = tested on: CHEAL (Lambsquarters, Common); test: Postemergence herbicidal evaluation; type: in vivo, Chenopodium album
Protocol: as §1, §2, §3

[5] = tested on: GALAP (Galium); test: Postemergence herbicidal evaluation; type: in vivo, Galium aparine
Protocol: as §1, §2, §3

[6] = tested on: IPOHE (Morningglory, Ivyleaf); test: Postemergence herbicidal evaluation; type: in vivo, Ipomoea hederacea
Protocol: as §1, §2, §3

[7] = tested on: ECHCG (Barnyardgrass); test: Postemergence herbicidal evaluation; type: in vivo, Echinochloa crus-galli
Protocol: as §1, §2, §3

[8] = tested on: SETVI (Foxtail, Green); test: Postemergence herbicidal evaluation; type: in vivo, Setaria viridis
Protocol: as §1, §2, §3

[9] = tested on: GLXMAW (Soybean, Williams); test: Postemergence herbicidal evaluation; type: in vivo, Glycine max, (L.) Merr. cv Williams
Protocol: as §1, §2, §3

[10] = tested on: ORYSAT (Rice, Tebonnet); test: Postemergence herbicidal evaluation; type: in vivo, Oryza sativa, (L.) Tebonnet
Protocol: as §1, §2, §3

[11] = tested on: TRZAWR (Wheat, Winter, cv Riband); test: Postemergence herbicidal evaluation; type: in vivo, Triticum aestivum
Protocol: as §1, §2, §3

[12] = tested on: ZEAMX (Corn, Field); test: Postemergence herbicidal evaluation; type: in vivo, Zea mays
Protocol: as §1, §2, §3

[13] = tested on: ECHORC (Watergrass (Calif.)); test: Preemergence weed control under flooded paddy conditions; type: in vivo, Echinochloa oryzoides; conditions: rated 3-4 weeks after treatment
Protocol: as §3
(§4) Preemergence herbicidal activity under flooded paddy conditions is determined as follows: plant seeds or propagating organs are planted in the top 0.5 cm of silt loam soil in 32 oz. plastic containers with a diameter of 10.5 cm and no drainage holes. Water is added to these containers and maintained at 1.5 to 3 cm above the soil surface for the duration of the experiment. The test compounds are applied as aqueous/acetone mixtures 50/50 v/v pipetted directly into the flood water to give the equivalent of about 0.0313 to 0.500 kg/ha of active ingredient. The treated containers are placed on greenhouse benches and cared for in accordance with conventional greenhouse procedures. Three to four weeks after treatment, the test is terminated and each container is examined and herbicidal effect rated according to the rating system provided in Example 37. The compounds evaluated are reported by compound number given in Example 37.
(§5) Plant species employed in this example are reported by header abbreviation, common name and scientific name.

[14] = tested on: CYPIR (Rice Flatsedge); test: as above; type: in vivo, Cyperus iria; conditions: rated 3-4 weeks after treatment
Protocol: as §3, §4, §5

[15] = tested on: CYPSE (Flatsedge); test: as above; type: in vivo, Cyperus serotinus; conditions: rated 3-4 weeks after treatment
Protocol: as §3, §4, §5

[16] = tested on: MOOVA (Monochoria); test: as above; type: in vivo, Monochoria vaginalis; conditions: rated 3-4 weeks after treatment
Protocol: as §3, §4, §5

[17] = tested on: SAGPY (Arrowhead (Pygmaea)); test: as above; type: in vivo, Sagittaria pygmaea; conditions: rated 3-4 weeks after treatment
Protocol: as §3, §4, §5

[18] = tested on: ECHORC (Watergrass (Calif.)); test: Postemergence weed control under flooded paddy conditions; type: in vivo, Echinochloa oryzoides; conditions: postemergence weeds, 3-4 weeks after treatment
Text: as §3
(§6) Plastic containers containing weeds which are 3 to 5 cm tall and rice seedlings at the 1.5 to 2.5 leaf stage are flooded with water. The water is maintained at 1.5 to 3 cm above the soil surface for the duration of the experiment. Test compounds are applied as aqueous/ acetone mixtures 50/50 v/v directly into the flood water to provide the equivalent of about 0.0313 to 0.500 kg/ha of active ingredient. The treated containers are placed on greenhouse benches and cared for in accordance with conventional greenhouse procedures. Three to four weeks after treatment, the test is terminated and each container is examined and herbicidal effect rated according to the rating system provided in Example 37. The compounds evaluated are reported by compound number given in Example 37.

[19] = tested on: CYPIR (Rice Flatsedge); test: as above; type: in vivo, Cyperus iria; conditions: postemergence weeds, 3-4 weeks after treatment
Text: as §3, §6

[20] = tested on: CYPSE (Flatsedge); test: as above; type: in vivo, Cyperus serotinus; conditions: postemergence weeds, 3-4 weeks after treatment
Text: as §3, §6

[21] = tested on: MOOVA (Monochoria); test: as above; type: in vivo, Monochoria vaginalis; conditions: postemergence weeds, 3-4 weeks after treatment
Text: as §3, §6

[22] = tested on: SAGPY (Arrowhead (Pygmaea)); test: as above; type: in vivo, Sagittaria pygmaea; conditions: postemergence weeds, 3-4 weeks after treatment
Text: as §3, §6

## CCOC(=O)CN1C(=O)C(CC(N)=O)S/C1=N/c1cc(-n2c(=O)cc(C(F)(F)F)n(C)c2=O)c(F)cc1Cl (stereo not shown) [Compound 56, Ethyl 5-(carbamoylmethyl)-2-{{2-chloro-5-[3,6-dihydro-3-methyl-2,6-dioxo-4-(trifluoromethyl)-1(2H)-pyrimidinyl]-4-fluorophenyl}imino}-4-oxo-3-thiazolidineacetate]
[1]; Rate 0.0158 kg/ha
  Postemergence herbicidal rating ABUTH: 9.0
[1]; Rate 0.0315 kg/ha
  Postemergence herbicidal rating ABUTH: 9.0
[1]; Rate 0.0630 kg/ha
  Postemergence herbicidal rating ABUTH: 9.0
[2]; Rate 0.0158 kg/ha
  Postemergence herbicidal rating AMBEL: 9.0
[2]; Rate 0.0315 kg/ha
  Postemergence herbicidal rating AMBEL: 9.0
[2]; Rate 0.0630 kg/ha
  Postemergence herbicidal rating AMBEL: 9.0
[3]; Rate 0.0158 kg/ha
  Postemergence herbicidal rating CASOB: 4.0
[3]; Rate 0.0315 kg/ha
  Postemergence herbicidal rating CASOB: 4.0
[3]; Rate 0.0630 kg/ha
  Postemergence herbicidal rating CASOB: 9.0
[4]; Rate 0.0158 kg/ha
  Postemergence herbicidal rating CHEAL: 9.0
[4]; Rate 0.0315 kg/ha
  Postemergence herbicidal rating CHEAL: 9.0
[4]; Rate 0.0630 kg/ha
  Postemergence herbicidal rating CHEAL: 9.0
[5]; Rate 0.0158 kg/ha
  Postemergence herbicidal rating GALAP: 3.0
[5]; Rate 0.0315 kg/ha
  Postemergence herbicidal rating GALAP: 6.0
[5]; Rate 0.0630 kg/ha
  Postemergence herbicidal rating GALAP: 9.0
[6]; Rate 0.0158 kg/ha
  Postemergence herbicidal rating IPOHE: 9.0
[6]; Rate 0.0315 kg/ha
  Postemergence herbicidal rating IPOHE: 9.0
[6]; Rate 0.0630 kg/ha
  Postemergence herbicidal rating IPOHE: 9.0
[7]; Rate 0.0158 kg/ha
  Postemergence herbicidal rating ECHCG: 2.0
[7]; Rate 0.0315 kg/ha
  Postemergence herbicidal rating ECHCG: 2.0
[7]; Rate 0.0630 kg/ha
  Postemergence herbicidal rating ECHCG: 3.0
[8]; Rate 0.0158 kg/ha
  Postemergence herbicidal rating SETVI: 6.0
[8]; Rate 0.0315 kg/ha
  Postemergence herbicidal rating SETVI: 6.0
[8]; Rate 0.0630 kg/ha
  Postemergence herbicidal rating SETVI: 7.0
[9]; Rate 0.0158 kg/ha
  Postemergence herbicidal rating GLXMAW: 7.0
[9]; Rate 0.0315 kg/ha
  Postemergence herbicidal rating GLXMAW: 7.5
[9]; Rate 0.0630 kg/ha
  Postemergence herbicidal rating GLXMAW: 8.0
[10]; Rate 0.0158 kg/ha
  Postemergence herbicidal rating ORYSAT: 1.5
[10]; Rate 0.0315 kg/ha
  Postemergence herbicidal rating ORYSAT: 2.0
[10]; Rate 0.0630 kg/ha
  Postemergence herbicidal rating ORYSAT: 2.5
[11]; Rate 0.0158 kg/ha
  Postemergence herbicidal rating TRZAWR: 4.0
[11]; Rate 0.0315 kg/ha
  Postemergence herbicidal rating TRZAWR: 4.5
[11]; Rate 0.0630 kg/ha
  Postemergence herbicidal rating TRZAWR: 5.0
[12]; Rate 0.0158 kg/ha
  Postemergence herbicidal rating ZEAMX: 5.0
[12]; Rate 0.0315 kg/ha
  Postemergence herbicidal rating ZEAMX: 5.5
[12]; Rate 0.0630 kg/ha
  Postemergence herbicidal rating ZEAMX: 6.5
[13]; 0.0313 kg/ha
  Herbicidal rating ECHORC: 0.0
[13]; 0.0625 kg/ha
  Herbicidal rating ECHORC: 0.0
[13]; 0.1250 kg/ha
  Herbicidal rating ECHORC: 3.0
[13]; 0.2500 kg/ha
  Herbicidal rating ECHORC: 5.0
[14]; 0.0313 kg/ha
  Herbicidal rating CYPIR: 0.0
[14]; 0.0625 kg/ha
  Herbicidal rating CYPIR: 0.0
[14]; 0.1250 kg/ha
  Herbicidal rating CYPIR: 0.0
[14]; 0.2500 kg/ha
  Herbicidal rating CYPIR: 0.0
[15]; 0.0313 kg/ha
  Herbicidal rating CYPSE: 0.0
[15]; 0.0625 kg/ha
  Herbicidal rating CYPSE: 0.0
[15]; 0.1250 kg/ha
  Herbicidal rating CYPSE: 0.0
[15]; 0.2500 kg/ha
  Herbicidal rating CYPSE: 0.0
[16]; 0.0313 kg/ha
  Herbicidal rating MOOVA: 6.0
[16]; 0.0625 kg/ha
  Herbicidal rating MOOVA: 6.0
[16]; 0.1250 kg/ha
  Herbicidal rating MOOVA: 9.0
[16]; 0.2500 kg/ha
  Herbicidal rating MOOVA: 9.0
[17]; 0.0313 kg/ha
  Herbicidal rating SAGPY: 0.0
[17]; 0.0625 kg/ha
  Herbicidal rating SAGPY: 0.0
[17]; 0.1250 kg/ha
  Herbicidal rating SAGPY: 0.0
[17]; 0.2500 kg/ha
  Herbicidal rating SAGPY: 0.0
[18]; rate 0.0313 kg/ha
  Herbicidal rating ECHORC: 0.0
[18]; rate 0.0625 kg/ha
  Herbicidal rating ECHORC: 0.0
[18]; rate 0.1250 kg/ha
  Herbicidal rating ECHORC: 3.0
[18]; rate 0.2500 kg/ha
  Herbicidal rating ECHORC: 5.0
[19]; rate 0.0313 kg/ha
  Herbicidal rating CYPIR: 0.0
[19]; rate 0.0625 kg/ha
  Herbicidal rating CYPIR: 0.0
[19]; rate 0.1250 kg/ha
  Herbicidal rating CYPIR: 0.0
[19]; rate 0.2500 kg/ha
  Herbicidal rating CYPIR: 0.0
[20]; rate 0.0313 kg/ha
  Herbicidal rating CYPSE: 0.0
[20]; rate 0.0625 kg/ha
  Herbicidal rating CYPSE: 0.0
[20]; rate 0.1250 kg/ha
  Herbicidal rating CYPSE: 0.0
[20]; rate 0.2500 kg/ha
  Herbicidal rating CYPSE: 0.0
[21]; rate 0.0313 kg/ha
  Herbicidal rating MOOVA: 6.0
[21]; rate 0.0625 kg/ha
  Herbicidal rating MOOVA: 6.0
[21]; rate 0.1250 kg/ha
  Herbicidal rating MOOVA: 9.0
[21]; rate 0.2500 kg/ha
  Herbicidal rating MOOVA: 9.0
[22]; rate 0.0313 kg/ha
  Herbicidal rating SAGPY: 0.0
[22]; rate 0.0625 kg/ha
  Herbicidal rating SAGPY: 0.0
[22]; rate 0.1250 kg/ha
  Herbicidal rating SAGPY: 0.0
[22]; rate 0.2500 kg/ha
  Herbicidal rating SAGPY: 0.0
